For 8 compounds, MIC results are on record in patent US9290515B2, “Cephem derivative having catechol group” (SHIONOGI & CO., LTD., priority 2011, dated 2016).

Values after ≈ are worked out from the molar mass of the structure shown.

What all share (format): cell-based
One assay has as its system P. aeruginosa SR24. The assay can be described thus: MIC by broth microdilution (CLSI), P. aeruginosa SR24. The following applies: Pseudomonas aeruginosa; P. aeruginosa SR24, Ceftazidime-sensitive strain; 10000 cfu/well; cation-adjusted Mueller Hinton broth with 20 μM human apo-transferrin; read-out: minimum growth inhibition concentration (MIC). The method, then: (§1) Measurement of a minimum growth inhibition concentration (MIC: μg/mL) was performed according to CLSI (Clinical and Laboratory Standards Institute) method, by broth microdilution method, using an inoculation microbe amount of 10000 cfu/well and cation-adjusted Mueller Hinton broth containing human-derived 20 μM apo-transferrin as a test medium.
In general terms: In broth dilution the organism is exposed to a series of concentrations in liquid medium.

The subject of assay [1] is S. maltophilia SR21970(L-1). The assay can be described thus: MIC by broth microdilution (CLSI), S. maltophilia SR21970. The following applies: Stenotrophomonas maltophilia; S. maltophilia SR21970, L-1, MBL producing carbapenem-resistant strain; 10000 cfu/well; cation-adjusted Mueller Hinton broth with 20 μM human apo-transferrin; read-out: minimum growth inhibition concentration (MIC). The method, then:
as §1

Assay [2] has as its system P. aeruginosa SR27001(MDRP, IMP-1+). The assay can be described thus: MIC by broth microdilution (CLSI), P. aeruginosa SR27001. The following applies: Pseudomonas aeruginosa; P. aeruginosa SR27001, MDRP, IMP-1, MBL producing carbapenem-resistant strain; 10000 cfu/well; cation-adjusted Mueller Hinton broth with 20 μM human apo-transferrin; read-out: minimum growth inhibition concentration (MIC). The method, then:
as §1

The test system of the next assay is A. baumannii SR24396. The assay can be described thus: MIC by broth microdilution (CLSI), A. baumannii SR24396. Particulars: Acinetobacter baumannii, 10000 cfu/well, cation-adjusted Mueller Hinton broth with 20 μM human apo-transferrin, read-out: minimum growth inhibition concentration (MIC). How it is done: as §1
In assay [3] the test system is P. aeruginosa SR27060(metallo). The assay can be described thus: MIC by broth microdilution (CLSI), P. aeruginosa SR27060. The following applies: Pseudomonas aeruginosa; P. aeruginosa SR27060, IMP-1, MBL producing carbapenem-resistant strain; 10000 cfu/well; cation-adjusted Mueller Hinton broth with 20 μM human apo-transferrin; read-out: minimum growth inhibition concentration (MIC). The method, then:
as §1

Assay [4] has as its system E. coli ATCC BAA-196_TEM-10. The assay can be described thus: MIC by broth microdilution (CLSI), E. coli ATCC BAA-196. Particulars: Escherichia coli, ATCCBAA196; E. coli ATCC BAA-196, TEM-10, ESBL producing strain; 10000 cfu/well; cation-adjusted Mueller Hinton broth with 20 μM human apo-transferrin; read-out: minimum growth inhibition concentration (MIC). How it is done: as §1

The subject of assay [5] is K. pneumoniae ATCC 700603_SHV18. The assay can be described thus: MIC by broth microdilution (CLSI), K. pneumoniae ATCC 700603. Particulars: Klebsiella pneumoniae, ATCC700603; K. pneumoniae ATCC 700603, SHV-18, ESBL producing strain; 10000 cfu/well; cation-adjusted Mueller Hinton broth with 20 μM human apo-transferrin; read-out: minimum growth inhibition concentration (MIC). The method, then: as §1

Take `C[N+]1(CC2=C(C(=O)[O-])N3C(=O)[C@@H](NC(=O)/C(=N\O[C@H](C(=O)[O-])c4ccc(O)c(O)c4)c4csc(N)n4)[C@H]3SC2)CCCC1.[Na+]` [Comparative Example compound 1, reference compound]: the MIC in the assay on P. aeruginosa SR24 is 8 µg/mL; in assay [1], over 32 µg/mL; in assay [2], over 32 µg/mL; with A. baumannii SR24396, 4 µg/mL; in assay [3], over 32 µg/mL; in assay [4] it was 16 µg/mL. Moreover, the MIC in assay [5] amounted to 16 µg/mL.

For `Nc1nc(/C(=N/O[C@H](C(=O)[O-])c2ccc(O)c(O)c2)C(=O)N[C@@H]2C(=O)N3C(C(=O)[O-])=C(C[N+]45CCC(CC4)CC5)CS[C@H]23)cs1.[Na+]` [Comparative Example compound 2, reference compound], the MIC with P. aeruginosa SR24 was 8 µg/mL; in assay [1], over 32 µg/mL; in assay [2], over 32 µg/mL; in the assay on A. baumannii SR24396, 16 µg/mL; in assay [3], over 32 µg/mL; in assay [4] it was 32 µg/mL. Also, the MIC in assay [5] is 16 µg/mL.

Take `C[N+]1(CC2=C(C(=O)[O-])N3C(=O)[C@@H](NC(=O)/C(=N\OC(CNC(=O)c4ccc(O)c(O)c4Cl)C(=O)O)c4csc(N)n4)[C@H]3SC2)[C@@H]2CC[C@H]1C[C@@H](N)C2` (stereo partly shown) [Compound I-6]: the MIC with P. aeruginosa SR24 was 0.125 µg/mL (≈ 0.16 µM); in assay [2], 0.25 µg/mL (≈ 0.321 µM); with A. baumannii SR24396 it was at most 0.031 µg/mL; in assay [3], 0.25 µg/mL (≈ 0.321 µM); in assay [4] it was 0.25 µg/mL (≈ 0.321 µM); in assay [5] it was 0.125 µg/mL (≈ 0.16 µM).

For the compound `NCC[N+]1(CC2=C(C(=O)[O-])N3C(=O)[C@@H](NC(=O)/C(=N\OC(CNC(=O)c4ccc(O)c(O)c4Cl)C(=O)O)c4csc(N)n4)[C@H]3SC2)CCCC1` (stereo partly shown) [Compound I-7], the MIC with P. aeruginosa SR24 was 0.125 µg/mL (≈ 0.166 µM); in assay [2] it was 0.5 µg/mL (≈ 0.664 µM); with A. baumannii SR24396, at most 0.031 µg/mL; in assay [3], 0.125 µg/mL (≈ 0.166 µM); in assay [4], 0.125 µg/mL (≈ 0.166 µM); in assay [5], 0.063 µg/mL (≈ 0.0836 µM).

Regarding `C[N+]1(CC2=C(C(=O)[O-])N3C(=O)[C@@H](NC(=O)/C(=N\OC(CNC(=O)c4ccc(O)c(O)c4Cl)C(=O)[O-])c4csc(N)n4)[C@H]3SC2)CCCC1.[Na+]` (stereo partly shown) [Compound I-8], the MIC was found to be 0.125 µg/mL in the assay on P. aeruginosa SR24; 8 µg/mL in assay [2]; 0.063 µg/mL in the assay on A. baumannii SR24396; 4 µg/mL in assay [3]; 0.5 µg/mL in assay [4]; 1 µg/mL in assay [5].

Consider `Nc1nc(/C(=N/OC(CNC(=O)c2ccc(O)c(O)c2Cl)C(=O)[O-])C(=O)N[C@@H]2C(=O)N3C(C(=O)[O-])=C(C[N+]45CCC(CC4)CC5)CS[C@H]23)cs1.[Na+]` (stereo partly shown) [Compound I-9], for which the MIC with P. aeruginosa SR24 is 0.125 µg/mL; in assay [1] it was 1 µg/mL; in assay [2], 2 µg/mL; with A. baumannii SR24396 it was 0.063 µg/mL; in assay [3] it was 1 µg/mL; in assay [4] it was 0.5 µg/mL. In addition, the MIC in assay [5] was found to be 0.125 µg/mL.

As for `Nc1nc(/C(=N/OC(CNC(=O)c2ccc(O)c(O)c2Cl)C(=O)[O-])C(=O)N[C@@H]2C(=O)N3C(C(=O)[O-])=C(C[n+]4cccc5c4CCC5)CS[C@H]23)cs1.[Na+]` (stereo partly shown) [Compound I-13], the MIC with P. aeruginosa SR24 is 0.125 µg/mL; in assay [1], over 32 µg/mL; in assay [2], 2 µg/mL; in the assay with A. baumannii SR24396 it was 0.063 µg/mL; in assay [3] it was 2 µg/mL; in assay [4], 1 µg/mL. For the same compound, the MIC in assay [5] worked out at 0.5 µg/mL.

On to `Nc1nc(/C(=N/OC[C@H](NC(=O)c2ccc(O)c(O)c2Cl)C(=O)[O-])C(=O)N[C@@H]2C(=O)N3C(C(=O)[O-])=C(C[N+]45CCC(CC4)CC5)CS[C@H]23)cs1.[Na+]` [Compound I-23], for which the MIC in the assay with P. aeruginosa SR24 stood at 0.125 µg/mL; in assay [1], 8 µg/mL; in the assay with A. baumannii SR24396, 0.25 µg/mL; in assay [3], 0.5 µg/mL; in assay [4], 1 µg/mL; in assay [5], 8 µg/mL.
